Test results reported in ChEMBL document CHEMBL1201862, “PubChem BioAssay data set” (2004).
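Exposure lasted 48 hours, with cells grown in 96-well plates and compounds tested at five concentrations. GI50: concentration for 50% inhibition of growth.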 The source made the active and inactive calls. Rule as the data show it: active = GI50 up to about 1.1 µM and inactive = higher.

What was measured:
Assay in all cases: inhibition of tumour cell growth, NCI panel, 48 h
KM12 = system: KM12
MDA-MB-231 = system: MDA-MB-231
PC-3 = system: PC-3
SF-295 = system: SF-295
MDA-N = system: MDA-N
HCC 2998 = system: HCC 2998
CCRF-CEM = system: CCRF-CEM
NCI/ADR-RES = system: NCI/ADR-RES
SW-620 = system: SW-620
UACC-257 = system: UACC-257
SNB-75 = system: SNB-75
SF-268 = system: SF-268
SK-MEL-5 = system: SK-MEL-5
U-251 = system: U-251
SNB-19 = system: SNB-19
MCF7 = system: MCF7
M14 = system: M14
786-0 = system: 786-0
SF-539 = system: SF-539
A549 = system: A549
SK-MEL-28 = system: SK-MEL-28
TK-10 = system: TK-10
K562 = system: K562
OVCAR-8 = system: OVCAR-8
EKVX = system: EKVX
HL-60 = system: HL-60
Hs-578T = system: Hs-578T
HCT-116 = system: HCT-116
NCI-H226 = system: NCI-H226
HOP-62 = system: HOP-62
HT-29 = system: HT-29
IGROV-1 = system: IGROV-1
Malme-3M = system: Malme-3M
BT-549 = system: BT-549
HOP-92 = system: HOP-92
MDA-MB-435 = system: MDA-MB-435
NCI-H23 = system: NCI-H23
T47D = system: T47D
OVCAR-3 = system: OVCAR-3
NCI-H522 = system: NCI-H522
CAKI-1 = system: CAKI-1
SK-OV-3 = system: SK-OV-3
RXF 393 = system: RXF 393
SN12C = system: SN12C
COLO 205 = system: COLO 205
NCI-H460 = system: NCI-H460
LOX IMVI = system: LOX IMVI
OVCAR-4 = system: OVCAR-4
SK-MEL-2 = system: SK-MEL-2
MOLT-4 = system: MOLT-4
ACHN = system: ACHN
UACC-62 = system: UACC-62
SR = system: SR
RPMI-8226 = system: RPMI-8226
OVCAR-5 = system: OVCAR-5
DU-145 = system: DU-145
HCT-15 = system: HCT-15
UO-31 = system: UO-31

`COc1cc(C2SC(=N)Nc3c2c(C)nn3C(=O)c2ccc(Cl)cc2)cc(OC)c1OC` (stereo not given) was tested, and the GI50 (KM12) was > 10 µM (inactive), the GI50 (MDA-MB-231) was > 10 µM (inactive) and the GI50 (PC-3) was > 10 µM (inactive). The GI50 (SF-295) was > 10 µM (inactive), the GI50 (MDA-N) was > 10 µM (inactive) and the GI50 (HCC 2998) was > 10 µM (inactive). For the same compound, the GI50 (CCRF-CEM) was > 10 µM (inactive), the GI50 (NCI/ADR-RES) was > 10 µM (inactive) and the GI50 (SW-620) was > 10 µM (inactive). The GI50 (UACC-257) was > 10 µM (inactive), the GI50 (SNB-75) was > 10 µM (inactive) and the GI50 (SF-268) was > 10 µM (inactive). The GI50 (SK-MEL-5) was > 10 µM (inactive), the GI50 (U-251) was > 10 µM (inactive) and the GI50 (SNB-19) was > 10 µM (inactive). For the same compound, the GI50 (MCF7) was > 10 µM (inactive), the GI50 (M14) was > 10 µM (inactive) and the GI50 (786-0) was > 10 µM (inactive). For the same compound, the GI50 (SF-539) was > 10 µM (inactive), the GI50 (A549) was > 10 µM (inactive) and the GI50 (SK-MEL-28) was > 10 µM (inactive). For the same compound, the GI50 (TK-10) was > 10 µM (inactive), the GI50 (K562) was > 10 µM (inactive) and the GI50 (OVCAR-8) was > 10 µM (inactive). For the same compound, the GI50 (EKVX) was > 10 µM (inactive), the GI50 (HL-60) was > 10 µM (inactive) and the GI50 (Hs-578T) was > 10 µM (inactive). The GI50 (HCT-116) was > 10 µM (inactive), the GI50 (NCI-H226) was > 10 µM (inactive) and the GI50 (HOP-62) was > 10 µM (inactive). For the same compound, the GI50 (HT-29) was > 10 µM (inactive), the GI50 (IGROV-1) was > 10 µM (inactive) and the GI50 (Malme-3M) was > 10 µM (inactive). The GI50 (BT-549) was > 10 µM (inactive), the GI50 (HOP-92) was > 10 µM (inactive) and the GI50 (MDA-MB-435) was > 10 µM (inactive). For the same compound, the GI50 (NCI-H23) was > 10 µM (inactive), the GI50 (T47D) was > 10 µM (inactive) and the GI50 (OVCAR-3) was > 10 µM (inactive). The GI50 (NCI-H522) was > 10 µM (inactive), the GI50 (CAKI-1) was > 10 µM (inactive) and the GI50 (SK-OV-3) was > 10 µM (inactive). The GI50 (RXF 393) was > 10 µM (inactive), the GI50 (SN12C) was > 10 µM (inactive) and the GI50 (COLO 205) was > 10 µM (inactive). For the same compound, the GI50 (NCI-H460) was > 10 µM (inactive), the GI50 (LOX IMVI) was > 10 µM (inactive) and the GI50 (OVCAR-4) was > 10 µM (inactive). The GI50 (SK-MEL-2) was > 10 µM (inactive), the GI50 (MOLT-4) was > 10 µM (inactive) and the GI50 (ACHN) was > 10 µM (inactive). The GI50 (UACC-62) was > 10 µM (inactive), the GI50 (SR) was > 10 µM (inactive) and the GI50 (RPMI-8226) was > 10 µM (inactive). The GI50 (OVCAR-5) was > 10 µM (inactive), the GI50 (DU-145) was > 10 µM (inactive) and the GI50 (HCT-15) was > 10 µM.

With `COc1ccc2c(c1OC)OCC(CN(C)C)C2=O` (stereo not given) the GI50 (KM12) was 16.5 µM (inactive), the GI50 (MDA-MB-231) was 18.8 µM (inactive) and the GI50 (PC-3) was 18.7 µM (inactive). For the same compound, the GI50 (SF-295) was > 100 µM (inactive), the GI50 (MDA-N) was 18.2 µM (inactive) and the GI50 (HCC 2998) was 18.7 µM (inactive). The GI50 (CCRF-CEM) was 2.15 µM (inactive), the GI50 (NCI/ADR-RES) was 27.7 µM (inactive) and the GI50 (SW-620) was 7.45 µM (inactive). The GI50 (UACC-257) was 16.7 µM (inactive), the GI50 (SNB-75) was 22.3 µM (inactive) and the GI50 (SF-268) was 25.4 µM (inactive). The GI50 (SK-MEL-5) was 17.7 µM (inactive), the GI50 (U-251) was 18.9 µM (inactive) and the GI50 (SNB-19) was > 100 µM (inactive). The GI50 (MCF7) was 8.95 µM (inactive), the GI50 (M14) was 17.3 µM (inactive) and the GI50 (786-0) was 12.6 µM (inactive). The GI50 (SF-539) was 20.4 µM (inactive), the GI50 (A549) was 26.1 µM (inactive) and the GI50 (SK-MEL-28) was 17.4 µM (inactive). For the same compound, the GI50 (TK-10) was 16.7 µM (inactive), the GI50 (K562) was 3.63 µM (inactive) and the GI50 (OVCAR-8) was 22.1 µM (inactive). For the same compound, the GI50 (EKVX) was 25.2 µM (inactive), the GI50 (HL-60) was 2.54 µM (inactive) and the GI50 (Hs-578T) was 39.1 µM (inactive). The GI50 (HCT-116) was 17.4 µM (inactive), the GI50 (NCI-H226) was > 47.1 µM (inactive) and the GI50 (HOP-62) was > 51.8 µM (inactive). For the same compound, the GI50 (HT-29) was 15.4 µM (inactive), the GI50 (IGROV-1) was 18.6 µM (inactive) and the GI50 (Malme-3M) was 18.5 µM (inactive). For the same compound, the GI50 (BT-549) was 19.4 µM (inactive), the GI50 (HOP-92) was 4.99 µM (inactive) and the GI50 (MDA-MB-435) was 19.5 µM (inactive). The GI50 (NCI-H23) was 17.1 µM (inactive), the GI50 (T47D) was 19.9 µM (inactive) and the GI50 (OVCAR-3) was 21.5 µM (inactive). For the same compound, the GI50 (NCI-H522) was 0.187 µM (active), the GI50 (CAKI-1) was 3.01 µM (inactive) and the GI50 (SK-OV-3) was > 43.1 µM (inactive). The GI50 (RXF 393) was 16.6 µM (inactive), the GI50 (SN12C) was 18.5 µM (inactive) and the GI50 (COLO 205) was 8.07 µM (inactive). The GI50 (NCI-H460) was > 44.6 µM (inactive), the GI50 (LOX IMVI) was 14.3 µM (inactive) and the GI50 (OVCAR-4) was 22.9 µM (inactive). For the same compound, the GI50 (SK-MEL-2) was 16.7 µM (inactive), the GI50 (MOLT-4) was 2.23 µM (inactive) and the GI50 (UO-31) was 18.2 µM (inactive). For the same compound, the GI50 (ACHN) was 17.7 µM (inactive), the GI50 (UACC-62) was 17.1 µM (inactive) and the GI50 (SR) was 1.87 µM (inactive). The GI50 (RPMI-8226) was 2.42 µM (inactive), the GI50 (OVCAR-5) was 19.1 µM (inactive) and the GI50 (DU-145) was 18.8 µM (inactive). It also gave a GI50 (HCT-15) of 18.1 µM.
